Experimental data from publication PMC3466204 (PLoS ONE, 2012).
Ends that are not written are not given here.

Test system: Lactococcus lactis HP
Assay: Agarose-based assay of cell-free supernatants of S29X producing strains
Settings: for Zone Diameter (mm): agarose (1%) GM17 assay, 10 µl cell-free supernatant of overnight producing culture in 4.6 mm wells, L. lactis HP, 30°C; for % difference (zone relative to wild type): agarose assay of supernatants against L. lactis HP, wild type serine = 100
Description: Agarose-based deferred antagonism assays were carried out as follows: GM17/LB (0.03%) underlay was prepared with 10 mM sodium phosphate buffer (SPB) at pH 7.4 to which was added agarose (1% w/v agarose), autoclaved and cooled to 50°C. Bacteria grown to mid-logarithmic phase were harvested by centrifugation and washed with 10 mM SPB at pH 7.4. Bacteria were then added to 15 mls cooled underlay medium to reach a concentration of 2×10^7 colony-forming units (CFU)/mL. The inoculated medium was rapidly transferred into sterile Petri plates, allowed to solidify and dried. Wells (4.6 mm in diameter) were then made in the seeded plates. 10 µl volumes of cell-free supernatant from overnight nisin derivative producing cultures or resuspended purified peptides were then added to the wells and the plates incubated at 30°C (L. lactis) or 37°C (Gram positive strains) or RT (Gram negative strains) for 3 hours. Polymyxin B (Sigma Aldrich) was used at a concentration of 20 µg/ml. The plates were then overlaid with 15 mls of autoclaved double strength GM17 (L. lactis) or LB (Gram negatives) agarose (1% w/v agarose) overlay medium precooled to 50°C. The plates were then incubated overnight at the relevant temperature.

For “S29C: nisin A S29 saturation derivative, cysteine at position 29 (ITSISLCTPGCKTGALMGCNMKTATCHCCIHVSK; not fully specified; cysteine pairing not given here; UniProt P13068 24-57, looked up, variant S29C)”, the “Zone Diameter (mm)” value was 10.5±1.0 mm and the “% difference (zone relative to wild type)” value was 69%.
“S29F: nisin A S29 saturation derivative, phenylalanine at position 29 (ITSISLCTPGCKTGALMGCNMKTATCHCFIHVSK; not fully specified (bridges); also: lantibiotic nisin A (lanthionine rings, dehydrated residues not placed); UniProt P13068 24-57, looked up, variant S29F)” was tested, and the “Zone Diameter (mm)” value was 11.0±1.0 mm and the “% difference (zone relative to wild type)” value was 72%.
For “S29H: nisin A S29 saturation derivative, histidine at position 29 (ITSISLCTPGCKTGALMGCNMKTATCHCHIHVSK; not fully specified (bridges); also: lantibiotic nisin A (lanthionine rings, dehydrated residues not placed); UniProt P13068 24-57, looked up, variant S29H)”, the “Zone Diameter (mm)” value was 10.9±0.3 mm and the “% difference (zone relative to wild type)” value was 72%.
For “S29I: nisin A S29 saturation derivative, isoleucine at position 29 (ITSISLCTPGCKTGALMGCNMKTATCHCIIHVSK; not fully specified; cysteine pairing not given here; UniProt P13068 24-57, looked up, variant S29I)”, the “Zone Diameter (mm)” value was 9.9±1.0 mm and the “% difference (zone relative to wild type)” value was 65%.
With “S29K: nisin A S29 saturation derivative, lysine at position 29 (ITSISLCTPGCKTGALMGCNMKTATCHCKIHVSK; not fully specified (bridges); also: lantibiotic nisin A (lanthionine rings, dehydrated residues not placed); UniProt P13068 24-57, looked up, variant S29K)” the “Zone Diameter (mm)” value was 9.9±1.0 mm and the “% difference (zone relative to wild type)” value was 64%.
“S29L: nisin A S29 saturation derivative, leucine at position 29 (ITSISLCTPGCKTGALMGCNMKTATCHCLIHVSK; not fully specified; cysteine pairing not given here; UniProt P13068 24-57, looked up, variant S29L)” was tested, and the “Zone Diameter (mm)” value was 12.7±0.7 mm and the “% difference (zone relative to wild type)” value was 84%.
In the case of “S29N: nisin A S29 saturation derivative, asparagine at position 29 (ITSISLCTPGCKTGALMGCNMKTATCHCNIHVSK; not fully specified; cysteine pairing not given here; UniProt P13068 24-57, looked up, variant S29N)”, the “Zone Diameter (mm)” value was 12.6±1.0 mm and the “% difference (zone relative to wild type)” value was 83%.
With “S29P: nisin A S29 saturation derivative, proline at position 29 (ITSISLCTPGCKTGALMGCNMKTATCHCPIHVSK; not fully specified (bridges); also: lantibiotic nisin A (lanthionine rings, dehydrated residues not placed); UniProt P13068 24-57, looked up, variant S29P)” the “Zone Diameter (mm)” value was 13.7±1.0 mm and the “% difference (zone relative to wild type)” value was 89%.
In the case of “S29Q: nisin A S29 derivative, glutamine at position 29, made by site-directed mutagenesis (ITSISLCTPGCKTGALMGCNMKTATCHCQIHVSK; not fully specified; cysteine pairing not given here; UniProt P13068 24-57, looked up, variant S29Q)”, the “Zone Diameter (mm)” value was 15.3±0.1 mm and the “% difference (zone relative to wild type)” value was 100%.
For “S29R: nisin A S29 saturation derivative, arginine at position 29 (ITSISLCTPGCKTGALMGCNMKTATCHCRIHVSK; not fully specified (bridges); also: lantibiotic nisin A (lanthionine rings, dehydrated residues not placed); UniProt P13068 24-57, looked up, variant S29R)”, the “Zone Diameter (mm)” value was 11.0±0.6 mm and the “% difference (zone relative to wild type)” value was 72%.
With “S29T: nisin A S29 saturation derivative, threonine at position 29 (ITSISLCTPGCKTGALMGCNMKTATCHCTIHVSK; not fully specified (bridges); also: lantibiotic nisin A (lanthionine rings, dehydrated residues not placed); UniProt P13068 24-57, looked up, variant S29T)” the “Zone Diameter (mm)” value was 12.1±0.9 mm and the “% difference (zone relative to wild type)” value was 79%.
For “S29V: nisin A S29 saturation derivative, valine at position 29 (ITSISLCTPGCKTGALMGCNMKTATCHCVIHVSK; not fully specified (bridges); also: lantibiotic nisin A (lanthionine rings, dehydrated residues not placed); UniProt P13068 24-57, looked up, variant S29V)”, the “Zone Diameter (mm)” value was 11.6±0.4 mm and the “% difference (zone relative to wild type)” value was 76%.
“S29W: nisin A S29 saturation derivative, tryptophan at position 29 (ITSISLCTPGCKTGALMGCNMKTATCHCWIHVSK; not fully specified; cysteine pairing not given here; UniProt P13068 24-57, looked up, variant S29W)” was tested, and the “Zone Diameter (mm)” value was 12.1±1.2 mm and the “% difference (zone relative to wild type)” value was 79%.
For “S29Y: nisin A S29 saturation derivative, tyrosine at position 29 (ITSISLCTPGCKTGALMGCNMKTATCHCYIHVSK; not fully specified (bridges); also: lantibiotic nisin A (lanthionine rings, dehydrated residues not placed); UniProt P13068 24-57, looked up, variant S29Y)”, the “Zone Diameter (mm)” value was 10.6±0.6 mm and the “% difference (zone relative to wild type)” value was 70%.
